Experimental data published in paper PMC6704710, “Preclinical evaluation of 3D185, a novel potent inhibitor of FGFR1/2/3 and CSF-1R, in FGFR-dependent and macrophage-dominant cancer models” (Journal of Experimental & Clinical Cancer Research : CR, 2019).

Key:
Experiment in all cases: Eurofins kinase panel
Format in all cases: biochemical
Details in all cases: read-out: Inhibition rate (%)
p70S6K(h) = target: T1, p70S6K(h) (Homo sapiens, UniProt P23443)
T1 construct: purchased Eurofins (KinaseProfiler)
T1 sequence (P23443 whole entry): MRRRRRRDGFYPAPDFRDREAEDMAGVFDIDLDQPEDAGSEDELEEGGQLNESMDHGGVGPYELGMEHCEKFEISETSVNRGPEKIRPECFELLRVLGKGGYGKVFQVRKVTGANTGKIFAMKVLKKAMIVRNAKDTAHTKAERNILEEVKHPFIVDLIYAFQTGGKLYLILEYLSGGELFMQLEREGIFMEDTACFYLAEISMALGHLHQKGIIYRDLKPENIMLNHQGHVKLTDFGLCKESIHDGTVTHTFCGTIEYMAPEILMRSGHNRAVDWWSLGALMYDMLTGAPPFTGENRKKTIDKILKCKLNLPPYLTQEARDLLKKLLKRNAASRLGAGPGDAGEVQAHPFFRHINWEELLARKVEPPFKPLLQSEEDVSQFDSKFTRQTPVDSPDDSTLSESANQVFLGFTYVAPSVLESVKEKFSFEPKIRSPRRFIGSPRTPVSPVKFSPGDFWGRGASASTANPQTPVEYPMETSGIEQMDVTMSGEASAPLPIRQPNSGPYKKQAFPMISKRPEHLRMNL

IR(h), activated = target: T2, IR(h), activated (Homo sapiens, UniProt P06213)
T2 construct: purchased Eurofins (KinaseProfiler)

CaMKIIδ(h) = target: T3, CaMKIIδ(h) (Homo sapiens, UniProt Q13557)
T3 construct: purchased Eurofins (KinaseProfiler)

TSSK2(h) = target: T4, TSSK2(h) (Homo sapiens, UniProt Q96PF2)
T4 construct: purchased Eurofins (KinaseProfiler)
T4 sequence (Q96PF2 1-358): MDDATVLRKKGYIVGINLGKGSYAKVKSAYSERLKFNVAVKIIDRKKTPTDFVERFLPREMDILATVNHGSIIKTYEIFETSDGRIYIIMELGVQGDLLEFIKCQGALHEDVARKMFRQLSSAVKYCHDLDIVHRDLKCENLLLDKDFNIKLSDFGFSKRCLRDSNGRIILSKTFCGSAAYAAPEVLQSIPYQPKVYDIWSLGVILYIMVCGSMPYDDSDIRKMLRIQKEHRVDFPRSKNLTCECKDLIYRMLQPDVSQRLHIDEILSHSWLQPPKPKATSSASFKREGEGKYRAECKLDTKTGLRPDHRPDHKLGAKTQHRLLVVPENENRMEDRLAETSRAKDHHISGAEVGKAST

SIK(h) = target: T5, SIK(h) (Homo sapiens, UniProt P57059)
T5 construct: purchased Eurofins (KinaseProfiler)
T5 sequence (P57059 whole entry): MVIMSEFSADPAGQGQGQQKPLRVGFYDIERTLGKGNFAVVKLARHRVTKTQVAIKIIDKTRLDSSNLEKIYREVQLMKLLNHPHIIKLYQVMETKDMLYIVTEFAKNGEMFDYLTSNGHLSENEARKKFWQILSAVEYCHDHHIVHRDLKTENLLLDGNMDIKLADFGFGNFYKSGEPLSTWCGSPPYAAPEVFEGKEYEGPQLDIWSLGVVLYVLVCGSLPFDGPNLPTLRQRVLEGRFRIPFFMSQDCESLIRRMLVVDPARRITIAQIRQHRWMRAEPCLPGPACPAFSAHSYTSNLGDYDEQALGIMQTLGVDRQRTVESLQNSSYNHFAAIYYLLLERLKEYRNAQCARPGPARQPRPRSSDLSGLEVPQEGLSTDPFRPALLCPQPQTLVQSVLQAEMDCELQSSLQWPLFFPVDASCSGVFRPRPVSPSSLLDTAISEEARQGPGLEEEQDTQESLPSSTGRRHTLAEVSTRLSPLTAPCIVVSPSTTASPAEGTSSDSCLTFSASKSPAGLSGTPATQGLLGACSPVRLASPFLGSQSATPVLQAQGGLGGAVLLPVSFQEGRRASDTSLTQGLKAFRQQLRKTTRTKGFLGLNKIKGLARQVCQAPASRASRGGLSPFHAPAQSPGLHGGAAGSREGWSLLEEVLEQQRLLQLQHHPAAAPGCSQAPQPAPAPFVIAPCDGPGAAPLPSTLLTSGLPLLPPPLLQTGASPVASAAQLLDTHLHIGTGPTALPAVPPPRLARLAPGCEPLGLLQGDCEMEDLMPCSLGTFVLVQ

CDK3/cyclinE(h) = target: T6, CDK3/cyclinE(h) (Homo sapiens, UniProt Q00526)
T6 construct: purchased Eurofins (KinaseProfiler)
T6 sequence (Q00526 whole entry): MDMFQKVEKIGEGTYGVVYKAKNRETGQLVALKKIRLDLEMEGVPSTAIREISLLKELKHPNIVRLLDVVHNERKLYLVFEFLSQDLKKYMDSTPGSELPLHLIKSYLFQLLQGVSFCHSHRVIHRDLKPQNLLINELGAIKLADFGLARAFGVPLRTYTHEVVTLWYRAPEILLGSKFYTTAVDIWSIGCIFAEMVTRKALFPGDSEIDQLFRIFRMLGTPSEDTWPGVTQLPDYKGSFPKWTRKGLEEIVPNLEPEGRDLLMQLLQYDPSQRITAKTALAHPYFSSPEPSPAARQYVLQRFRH
T6 sequence (P24864 whole entry partner): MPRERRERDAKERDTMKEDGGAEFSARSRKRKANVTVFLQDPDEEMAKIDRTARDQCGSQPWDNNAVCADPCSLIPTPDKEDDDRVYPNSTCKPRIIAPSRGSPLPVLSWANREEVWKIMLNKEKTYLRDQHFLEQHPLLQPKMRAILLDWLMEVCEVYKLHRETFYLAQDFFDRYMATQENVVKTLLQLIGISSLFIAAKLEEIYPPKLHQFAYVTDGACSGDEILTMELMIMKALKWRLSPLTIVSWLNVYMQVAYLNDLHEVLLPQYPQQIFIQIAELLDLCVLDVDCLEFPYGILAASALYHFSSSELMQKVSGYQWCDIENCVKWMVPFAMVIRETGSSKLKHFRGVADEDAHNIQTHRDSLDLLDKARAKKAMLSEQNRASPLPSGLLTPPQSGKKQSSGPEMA

LRRK2(h) = target: T7, LRRK2(h) (Homo sapiens, UniProt Q5S007)
T7 construct: purchased Eurofins (KinaseProfiler)
T7 sequence (Q5S007 whole entry): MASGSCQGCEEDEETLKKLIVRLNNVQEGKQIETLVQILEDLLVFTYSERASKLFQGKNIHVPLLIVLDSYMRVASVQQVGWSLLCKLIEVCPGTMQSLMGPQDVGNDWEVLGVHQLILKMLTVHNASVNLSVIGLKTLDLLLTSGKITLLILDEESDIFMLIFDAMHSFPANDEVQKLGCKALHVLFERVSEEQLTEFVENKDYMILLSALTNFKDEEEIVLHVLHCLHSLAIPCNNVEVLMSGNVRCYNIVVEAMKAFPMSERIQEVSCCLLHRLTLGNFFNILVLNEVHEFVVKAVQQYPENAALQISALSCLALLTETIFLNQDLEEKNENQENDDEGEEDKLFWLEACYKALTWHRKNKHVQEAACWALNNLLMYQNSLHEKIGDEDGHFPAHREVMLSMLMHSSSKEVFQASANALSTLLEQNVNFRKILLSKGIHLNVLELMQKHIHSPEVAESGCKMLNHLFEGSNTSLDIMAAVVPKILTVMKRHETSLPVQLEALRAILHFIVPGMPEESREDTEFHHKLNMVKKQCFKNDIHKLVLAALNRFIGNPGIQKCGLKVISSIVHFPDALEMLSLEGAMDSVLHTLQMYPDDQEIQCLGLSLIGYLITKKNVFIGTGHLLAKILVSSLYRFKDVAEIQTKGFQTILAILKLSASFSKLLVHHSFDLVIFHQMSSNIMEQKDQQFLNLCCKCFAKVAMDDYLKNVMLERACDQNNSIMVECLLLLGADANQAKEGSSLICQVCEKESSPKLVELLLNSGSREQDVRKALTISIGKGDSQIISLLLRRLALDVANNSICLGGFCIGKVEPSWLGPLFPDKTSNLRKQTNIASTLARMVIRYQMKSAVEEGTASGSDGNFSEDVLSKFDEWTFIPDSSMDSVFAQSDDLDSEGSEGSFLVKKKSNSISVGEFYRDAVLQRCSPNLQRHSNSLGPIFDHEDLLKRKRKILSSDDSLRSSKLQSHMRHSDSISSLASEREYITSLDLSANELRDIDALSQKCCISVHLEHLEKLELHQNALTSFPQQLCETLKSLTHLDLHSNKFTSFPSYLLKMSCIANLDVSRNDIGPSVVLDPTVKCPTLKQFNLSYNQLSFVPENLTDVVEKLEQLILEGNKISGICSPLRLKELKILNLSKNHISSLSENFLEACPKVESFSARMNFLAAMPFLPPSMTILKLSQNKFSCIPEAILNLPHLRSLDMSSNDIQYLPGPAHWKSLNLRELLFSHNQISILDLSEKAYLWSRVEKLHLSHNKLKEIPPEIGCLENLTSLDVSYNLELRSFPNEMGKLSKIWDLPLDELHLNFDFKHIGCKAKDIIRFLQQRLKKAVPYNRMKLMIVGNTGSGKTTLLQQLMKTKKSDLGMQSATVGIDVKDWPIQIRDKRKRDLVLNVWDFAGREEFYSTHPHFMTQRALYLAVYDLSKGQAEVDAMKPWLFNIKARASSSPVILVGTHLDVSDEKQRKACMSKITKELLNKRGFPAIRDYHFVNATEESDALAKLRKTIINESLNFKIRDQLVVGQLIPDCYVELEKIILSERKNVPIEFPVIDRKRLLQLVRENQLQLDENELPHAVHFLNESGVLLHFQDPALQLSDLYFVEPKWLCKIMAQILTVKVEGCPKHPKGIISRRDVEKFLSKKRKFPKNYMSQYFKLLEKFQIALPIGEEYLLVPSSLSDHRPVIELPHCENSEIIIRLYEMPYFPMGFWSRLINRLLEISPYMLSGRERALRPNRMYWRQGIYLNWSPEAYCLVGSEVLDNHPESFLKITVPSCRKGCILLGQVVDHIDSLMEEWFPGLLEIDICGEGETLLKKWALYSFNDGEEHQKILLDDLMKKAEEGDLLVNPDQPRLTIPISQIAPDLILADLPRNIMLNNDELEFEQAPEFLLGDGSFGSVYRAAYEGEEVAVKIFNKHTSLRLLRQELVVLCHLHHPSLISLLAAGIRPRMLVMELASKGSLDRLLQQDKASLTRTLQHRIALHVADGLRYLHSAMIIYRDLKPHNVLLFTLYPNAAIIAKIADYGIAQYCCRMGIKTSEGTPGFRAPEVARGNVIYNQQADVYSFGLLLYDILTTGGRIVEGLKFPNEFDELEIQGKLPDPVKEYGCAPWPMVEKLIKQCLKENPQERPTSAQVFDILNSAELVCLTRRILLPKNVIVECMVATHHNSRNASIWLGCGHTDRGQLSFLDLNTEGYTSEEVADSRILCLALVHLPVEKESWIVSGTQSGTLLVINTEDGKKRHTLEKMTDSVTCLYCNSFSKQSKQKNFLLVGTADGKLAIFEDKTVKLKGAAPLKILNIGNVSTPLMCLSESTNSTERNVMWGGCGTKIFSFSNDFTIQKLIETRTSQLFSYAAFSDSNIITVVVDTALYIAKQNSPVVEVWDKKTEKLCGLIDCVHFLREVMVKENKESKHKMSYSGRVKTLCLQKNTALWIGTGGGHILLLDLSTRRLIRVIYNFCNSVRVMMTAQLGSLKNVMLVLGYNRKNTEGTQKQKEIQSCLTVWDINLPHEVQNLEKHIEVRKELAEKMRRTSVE

LTK(h) = target: T8, LTK(h) (Homo sapiens, UniProt P29376)
T8 construct: purchased Eurofins (KinaseProfiler)

ASK1(h) = target: T9, ASK1(h) (Homo sapiens, UniProt Q99683)
T9 construct: purchased Eurofins (KinaseProfiler)
T9 sequence (Q99683 1-1374): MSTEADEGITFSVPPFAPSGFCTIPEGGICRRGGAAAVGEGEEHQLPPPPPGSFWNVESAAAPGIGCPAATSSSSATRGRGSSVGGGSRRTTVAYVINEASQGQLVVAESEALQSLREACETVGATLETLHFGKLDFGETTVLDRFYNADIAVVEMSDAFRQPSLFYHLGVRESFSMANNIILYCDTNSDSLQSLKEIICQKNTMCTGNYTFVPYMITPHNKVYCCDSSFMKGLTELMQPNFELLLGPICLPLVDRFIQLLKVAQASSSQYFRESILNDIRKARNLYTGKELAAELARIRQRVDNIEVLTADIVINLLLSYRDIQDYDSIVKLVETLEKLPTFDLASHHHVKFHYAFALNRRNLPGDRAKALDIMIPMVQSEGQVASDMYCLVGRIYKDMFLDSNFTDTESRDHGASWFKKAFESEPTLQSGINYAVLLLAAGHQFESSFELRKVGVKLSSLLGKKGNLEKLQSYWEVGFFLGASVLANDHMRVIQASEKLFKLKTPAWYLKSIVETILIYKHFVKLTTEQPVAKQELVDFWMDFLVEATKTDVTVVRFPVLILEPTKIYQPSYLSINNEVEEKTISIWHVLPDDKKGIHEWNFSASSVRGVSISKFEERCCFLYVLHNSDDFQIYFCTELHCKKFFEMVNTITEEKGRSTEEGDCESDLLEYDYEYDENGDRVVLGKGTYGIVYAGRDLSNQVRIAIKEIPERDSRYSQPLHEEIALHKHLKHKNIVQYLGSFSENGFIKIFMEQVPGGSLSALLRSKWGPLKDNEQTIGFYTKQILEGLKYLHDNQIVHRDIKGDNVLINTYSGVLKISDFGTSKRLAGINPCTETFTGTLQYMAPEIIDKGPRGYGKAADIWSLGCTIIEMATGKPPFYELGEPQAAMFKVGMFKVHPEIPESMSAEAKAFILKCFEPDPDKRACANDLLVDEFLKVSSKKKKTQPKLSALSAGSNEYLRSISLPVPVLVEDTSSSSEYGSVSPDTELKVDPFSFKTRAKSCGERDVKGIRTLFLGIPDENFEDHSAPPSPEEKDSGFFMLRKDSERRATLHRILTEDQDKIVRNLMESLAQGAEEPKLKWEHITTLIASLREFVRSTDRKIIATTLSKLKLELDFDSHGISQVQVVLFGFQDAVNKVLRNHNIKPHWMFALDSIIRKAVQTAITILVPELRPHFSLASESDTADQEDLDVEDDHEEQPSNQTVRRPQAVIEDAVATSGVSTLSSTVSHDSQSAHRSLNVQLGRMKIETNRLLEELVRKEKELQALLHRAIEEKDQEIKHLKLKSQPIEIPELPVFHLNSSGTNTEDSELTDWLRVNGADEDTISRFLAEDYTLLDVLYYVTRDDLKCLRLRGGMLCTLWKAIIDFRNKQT

SAPK2a(h) = target: T10, SAPK2a(h) (Homo sapiens, UniProt Q16539)
T10 construct: purchased Eurofins (KinaseProfiler)

CSK(h) = target: T11, CSK(h) (Homo sapiens, UniProt P41240)
T11 construct: purchased Eurofins (KinaseProfiler)
T11 sequence (P41240 whole entry): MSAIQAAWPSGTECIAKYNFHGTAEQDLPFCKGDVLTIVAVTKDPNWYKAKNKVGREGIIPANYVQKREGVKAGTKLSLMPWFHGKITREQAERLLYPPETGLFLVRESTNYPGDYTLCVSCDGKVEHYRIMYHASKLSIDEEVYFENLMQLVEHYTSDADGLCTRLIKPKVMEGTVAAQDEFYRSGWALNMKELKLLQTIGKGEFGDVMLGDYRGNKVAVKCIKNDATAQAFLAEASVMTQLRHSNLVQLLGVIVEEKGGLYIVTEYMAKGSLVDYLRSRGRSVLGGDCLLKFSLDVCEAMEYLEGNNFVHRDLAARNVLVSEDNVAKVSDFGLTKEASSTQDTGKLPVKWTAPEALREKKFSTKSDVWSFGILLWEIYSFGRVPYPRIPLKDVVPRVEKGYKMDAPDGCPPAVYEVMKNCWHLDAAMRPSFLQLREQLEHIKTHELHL

**Q.** How did the inhibition at 0.01 µM (p70S6K(h); 10 nM) turn out when COc1cc(OC)c(Cl)c(-c2ccc3c(NC(=O)c4ccc(N5CCNC(C)(C)C5)cc4)n[nH]c3n2)c1Cl [3D185] was run?
**A.** -4%

**Q.** And the inhibition at 0.1 µM (p70S6K(h); 100 nM)?
**A.** -9%

**Q.** And the inhibition at 1 µM (p70S6K(h); 1000 nM)?
**A.** -1%

**Q.** And the inhibition at 0.01 µM (IR(h), activated; 10 nM)?
**A.** 9%

**Q.** And the inhibition at 0.1 µM (IR(h), activated; 100 nM)?
**A.** 42%

**Q.** And the inhibition at 1 µM (IR(h), activated; 1000 nM)?
**A.** 85%

**Q.** What about the inhibition at 0.01 µM (CaMKIIδ(h); 10 nM) of the same compound?
**A.** -1%

**Q.** What about the inhibition at 0.1 µM (CaMKIIδ(h); 100 nM) of the same compound?
**A.** -3%

**Q.** And the inhibition at 1 µM (CaMKIIδ(h); 1000 nM)?
**A.** -3%

**Q.** What about the inhibition at 0.01 µM (TSSK2(h); 10 nM) of the same compound?
**A.** 6%

**Q.** What about the inhibition at 0.1 µM (TSSK2(h); 100 nM) of the same compound?
**A.** 5%

**Q.** And the inhibition at 1 µM (TSSK2(h); 1000 nM)?
**A.** -4%

**Q.** And the inhibition at 0.01 µM (SIK(h); 10 nM)?
**A.** 4%

**Q.** And the inhibition at 0.1 µM (SIK(h); 100 nM)?
**A.** -17%

**Q.** And the inhibition at 1 µM (SIK(h); 1000 nM)?
**A.** -5%

**Q.** And the inhibition at 0.01 µM (CDK3/cyclinE(h); 10 nM)?
**A.** 1%

**Q.** What about the inhibition at 0.1 µM (CDK3/cyclinE(h); 100 nM) of the same compound?
**A.** -11%

**Q.** What about the inhibition at 1 µM (CDK3/cyclinE(h); 1000 nM) of the same compound?
**A.** -19%

**Q.** And the inhibition at 0.01 µM (LRRK2(h); 10 nM)?
**A.** -10%

**Q.** What about the inhibition at 0.1 µM (LRRK2(h); 100 nM) of the same compound?
**A.** -3%

**Q.** And the inhibition at 1 µM (LRRK2(h); 1000 nM)?
**A.** 21%

**Q.** And the inhibition at 0.01 µM (LTK(h); 10 nM)?
**A.** -8%

**Q.** And the inhibition at 0.1 µM (LTK(h); 100 nM)?
**A.** 1%

**Q.** What about the inhibition at 1 µM (LTK(h); 1000 nM) of the same compound?
**A.** 37%

**Q.** And the inhibition at 0.01 µM (ASK1(h); 10 nM)?
**A.** -6%

**Q.** What about the inhibition at 0.1 µM (ASK1(h); 100 nM) of the same compound?
**A.** -7%

**Q.** What about the inhibition at 1 µM (ASK1(h); 1000 nM) of the same compound?
**A.** -2%

**Q.** And the inhibition at 0.01 µM (SAPK2a(h); 10 nM)?
**A.** -7%

**Q.** What about the inhibition at 0.1 µM (SAPK2a(h); 100 nM) of the same compound?
**A.** -2%

**Q.** What about the inhibition at 1 µM (SAPK2a(h); 1000 nM) of the same compound?
**A.** -4%

**Q.** And the inhibition at 0.01 µM (CSK(h); 10 nM)?
**A.** 8%

**Q.** And the inhibition at 0.1 µM (CSK(h); 100 nM)?
**A.** 23%

**Q.** And the inhibition at 1 µM (CSK(h); 1000 nM)?
**A.** 63%
